The values below come from US10702571B2, “Materials for cathepsin B enhancement and methods of use” (The University of North Carolina at Pembroke, priority 2015, dated 2020).

Assay [1] relates to 30-kDa active form of cathepsin B (CatB-30). The assay is described as follows: Hippocampal slice cultures treated for two days, immunoblot for active cathepsin B. Format: cell-based, rodent. The settings on record: for levels of cathepsin B (summary in words) / effect of the cathepsin B positive modulator PADK in combination with flavonol (summary in words): summary in the discussion; for increase in CatB-30 by flavonol alone: 5 μM flavonol alone for 2 days; for increase in cathepsin B (CatB-30): vs non-treated slices, statistically significant. Here is the method: FIG. 1. Cathepsin B positive modulation by flavonols—members of the flavonoid class of polyphenolic compounds. Flavonols of quercetin (Q), fisetin (F), and myricetin (M) were applied daily to rodent hippocampal slice cultures. After two (2) days, non-treated (NT) and treated slices were harvested, homogenates were prepared, and equal protein aliquots were assessed by immunoblot to label the 30-kDa active form of cathepsin B (CatB-30). […] FIG. 2. Cathepsin B positive modulation by Z-Phe-Pro-OH. The compound Z-Phe-Pro-OH was applied to rodent hippocampal slice cultures for two (2) days. […] FIG. 3. Quercetin enhances the effect of the cathepsin B positive modulator Z-Phe-Ala-diazomethylketone (PADK). Quercetin (Q) at 5 μM was added to the daily PADK treatments of rodent hippocampal slice cultures. After two (2) days, non-treated (NT) and treated slices were harvested, homogenates were prepared, and equal protein aliquots were assessed by immunoblot to label the active form of cathepsin B (CatB-30). Paired, two-tailed t-test among distinct immunoblots found a statistically significant enhancement of the PADK effect by quercetin (p=0.0167; pairing was effective: p=0.0014). An enhancement of 60-70% occurred, whereas 5 μM quercetin alone for 2 days caused only a 21% increase in CatB-30. FIG. 4. Fisetin and myricetin enhance the cathepsin B positive modulation produced by 10 μM Z-Phe-Ala-diazomethylketone (PADK). Fisetin at 5 μM (top graph) or myricetin at 5 μM (bottom graph) were added to the two daily PADK treatments of rodent hippocampal slice cultures. The non-treated (NT) and treated slices were harvested, homogenates were prepared, and equal protein aliquots were assessed by immunoblot to label the active form of cathepsin B (CatB-30). […] An enhancement of 95-140% was produced by fisetin, whereas 5 μM fisetin alone for two (2) days caused only a 40% increase in CatB-30. FIG. 5. Dose-dependent enhancement of the PADK effect on CatB by flavonols. Quercetin (Q), fisetin (F), and myricetin (M) at 5-10 μM were applied daily to rodent hippocampal slice cultures that were also treated with 3 μM PADK (top graph) or 10 μM PADK (bottom graph). After two (2) days, non-treated (NT) and treated slices were harvested, homogenates were prepared, and equal protein aliquots were assessed by immunoblot to label the 30-kDa active form of cathepsin B (CatB-30). […] The 10 μM PADK slices indicate that each flavonol at the lower concentration has an enhancing effect, but the effect is eliminated or reduced when the flavonol concentration is doubled. As described in FIG. 1, flavonols such as quercetin (Q), fisetin (F), and myricetin (M) were applied daily to rodent hippocampal slice cultures. After two (2) days, non-treated (NT) and treated slices were harvested, homogenates were prepared, and equal protein aliquots were assessed by immunoblot to label the 30-kDa active form of cathepsin B (CatB-30). As described in FIG. 2, the compound of Z-Phe-Pro-OH was applied to rodent hippocampal slice cultures for two (2) days. As described in FIG. 3, the flavonol of quercetin (Q) was added at 5 μM to the daily PADK treatments of rodent hippocampal slice cultures. After two (2) days, non-treated (NT) and treated slices were harvested, homogenates were prepared, and equal protein aliquots were assessed by immunoblot to label the active form of cathepsin B (CatB-30). As described in FIG. 4, the flavonols of fisetin at 5 μM (top graph of FIG. 4) or myricetin at 5 μM (bottom graph of FIG. 4) were added to the two daily PADK treatments of rodent hippocampal slice cultures. The non-treated (NT) and treated slices were harvested, homogenates were prepared, and equal protein aliquots were assessed by immunoblot to label the active form of cathepsin B (CatB-30). As described in FIG. 5, the flavonols of quercetin (Q), fisetin (F), and myricetin (M) at 5-10 μM were applied daily to rodent hippocampal slice cultures that were also treated with 3 μM PADK (top graph) or 10 μM PADK (bottom graph). […]
In general terms: A western blot detects proteins with antibodies after separation by electrophoresis.

The subject of assay [2] is synaptic marker GluR1. Put plainly: Oral dosing in peanut butter pellets to middle-aged mice, dissected hippocampi: synaptic marker GluR1. Format: in vivo. The note with it: oral twice daily for 11 days, hippocampus, vs control compound. Here is the method:
(§1) Compounds in peanut butter pellets were administered to middle-aged mice orally twice daily for 11 days, then dissected hippocampi were compared to control mice that received the same oral dosing with control compound.

For assay [3], the system named is CatB-30. Put plainly: Oral dosing in peanut butter pellets to middle-aged mice, dissected hippocampi: CatB-30. The settings on record: oral twice daily for 11 days, hippocampus, vs control compound. Format: in vivo. The method, then: as §1
[4] abbreviates: flavonol at 5 and 10 μM daily with 3 μM PADK, two days.

Where a SMILES comes first, the peptide text is derived from it. The star is where a group is joined. Cbz = O=C(OCc1ccccc1)*

For the compound `O=C(N[C@@H](Cc1ccccc1)C(=O)N1CCC[C@H]1C(=O)O)OCc1ccccc1` [Z-Phe-Pro-OH, N-carbobenzoxy-L-phenylalanyl-L-proline] (Cbz-Phe-Pro-OH), the “levels of cathepsin B (summary in words)” value in assay [1] is on record as “increase levels of cathepsin B”.

Turning to `O=c1c(O)c(-c2ccc(O)c(O)c2)oc2cc(O)ccc12` [fisetin], in assay [1] (5 μM fisetin added to two daily treatments with 10 μM PADK), the “enhancement of the PADK effect on CatB-30” value is 95-140%. Besides, in assay [1], the “increase in CatB-30 by flavonol alone” value is given as 40%, the “effect of the cathepsin B positive modulator PADK in combination with flavonol (summary in words)” value (“effect … (summary in words)” below) is listed as “enhance the effect” and the “levels of cathepsin B (summary in words)” value is on record as “increase levels of cathepsin B”. Also, in assay [1] (5-30 μM fisetin applied daily, two days), the “increase in cathepsin B (CatB-30)” value is recorded as 1.65 fold. For the same compound, the “enhancement of the PADK effect on CatB-30 (in words)” value (from here on “enhancement … (in words)”) in assay [1] (setting [4]) is listed as “only the higher 10 μM concentration of fisetin enhanced the effect”.

In the case of `O=c1c(O)c(-c2cc(O)c(O)c(O)c2)oc2cc(O)cc(O)c12` [myricetin], the “enhancement … (in words)” value in assay [1] (5 μM myricetin added to two daily treatments with 10 μM PADK, one-tailed p=0.033) is on record as “smaller enhancement”. For the same compound, in assay [1] (setting [4]), the “enhancement … (in words)” value was “no enhancing effect at either concentration”. In assay [1], the “effect … (summary in words)” value is on record as “enhance the effect” and the “levels of cathepsin B (summary in words)” value is “increase levels of cathepsin B”.

As to `O=c1c(O)c(-c2ccc(O)c(O)c2)oc2cc(O)cc(O)c12` [quercetin], the “synaptic marker GluR1” value in assay [2] was “enhanced synaptic marker GluR1”. Also, in assay [3] (female middle-aged mice), the “CatB-30 in female mice” value was “increased CatB-30 in female mice”. Moreover, the “CatB-30 in male mice” value in assay [3] (male middle-aged mice) is listed as “increased CatB-30 in male mice”. In addition, in assay [1], the “increase in CatB-30 by flavonol alone” value came to 21%, the “effect … (summary in words)” value was “enhance the effect” and the “levels of cathepsin B (summary in words)” value was “increase levels of cathepsin B”. In assay [1] (5 μM quercetin added to the daily PADK treatments, two days), the “enhancement of the PADK effect on CatB-30” value is 60-70%. Moreover, in assay [1] (5-20 μM quercetin applied daily, two days), the “increase in cathepsin B (CatB-30)” value turned out to be 1.96 fold. Moreover, the “enhancement … (in words)” value in assay [1] (setting [4]) was “both 5 and 10 μM quercetin enhanced the PADK effect”.
